# Laboratory results from the METLIN SMRT retention time set (Domingo-Almenara et al. 2019).
# Experiment: gradient 5% acetonitrile 3 min, to 50% in 2 min, to 85% in 15 min, held 3 min, 100 µL/min
# Conditions: column: Zorbax Extend-C18 2.1 x 50 mm; eluents: water / acetonitrile, 0.1% formic acid
# In short: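 The mobile phases were water and acetonitrile, each with 0.1% formic acid, pumped at 100 μL/min through a Zorbax Extend-C18 column (2.1 × 50 mm, 1.8 μm). Pure standards were injected as mixtures of ~100 molecules and detected by a quadrupole time-of-flight mass spectrometer in positive and negative ionization mode. Retention time came from computationally picked adduct peaks, each inspected by hand.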
row,RP-LC retention time [s],SMILES
1,931,Cc1ccc(C(=O)N2CCC(COc3ccc(C(=O)NC(C)C)cc3)CC2)c(C)c1
2,762,O=C(N[C@H](Cc1ccccc1)C(=O)NCc1cscn1)c1cccc(F)c1
3,984,COc1ccc(-n2ccc(=O)c(-c3nc(-c4ccccc4OCc4ccccc4)no3)n2)cc1
4,1000,Cc1cc(-c2ccc3c(c2)CCN3C(=O)Cc2ccc(F)cc2)on1
5,995,Cc1cccc(NC(=O)C2C(=O)N(C)C3(C)CC2c2ccccc2O3)c1 (configuration not stated)
6,691,CCc1ccc(NS(=O)(=O)c2cc3n(c2)CCCNC3=O)cc1
7,643,CNC(=O)c1cc(-c2ccccc2)n[nH]1
8,864,O=C(c1cn(-c2ccc(-c3nc(C4CC4)no3)cn2)cn1)N1CCCCC1
9,667,COc1cccc(N2CCN(c3nc(C(=O)NCCN4CCOCC4)cs3)CC2)c1
10,1220,CCc1ccc(S(=O)(=O)c2cnc(N3CCN(c4cccc(C)c4)CC3)nc2N)cc1
11,572,Cc1csc(C(=O)NC2CNC(=O)C2)c1 (configuration not stated)
12,546,CCN(CC)c1ccc(CNC(=O)C2CCc3nc(N4CCCCC4)ncc3C2)cc1 (configuration not stated)
13,1060,Cc1oc(-c2ccccc2)nc1Cn1ccn2nc(-c3ccc4c(c3)OCO4)cc2c1=O
14,1050,O=C(C1CC1)N1CCc2c([nH]c3ccccc23)C1c1ccc(F)cc1 (configuration not stated)
15,665,CCOCCCNC(=O)C1CCCN(c2nnc(C)c3c(C)n(-c4ccc(OC)cc4)nc23)C1 (configuration not stated)
16,843,CCOc1ccc(S(=O)(=O)N2CCC(c3nc(C(=O)N(C)C)c(C)o3)CC2)cc1
17,619,Cc1ccnc(NC(=O)C2CCN(S(=O)(=O)c3c(C)nn(CC(=O)N4CCCC4)c3C)CC2)c1
18,1000,C=CCn1c(=O)c2ccccc2n(Cc2nc(-c3ccccc3)no2)c1=O
19,892,CCc1noc(-c2nc(-c3cc(OC)c(OC)c(OC)c3)no2)n1
20,819,CC(CNC(=O)CCn1c(N2CCCC2)nc2ccsc2c1=O)c1ccccc1 (configuration not stated)
21,656,O=C1CN(Cc2ccccc2)C(=O)C(Cc2ccccc2)N1 (configuration not stated)
22,654,CCCN(Cc1ccc(OC)cc1)Cc1cc(=O)n2cc(Cl)ccc2n1

row,RP-LC retention time [s],SMILES
1,677,Cc1nnc(NC(=O)Cc2csc(NC(=O)C3CCCC3)n2)s1
2,666,Cc1cc(N2CCN(C(=O)c3ccc4c(c3)OCO4)CC2)nc(N2CCCCC2)n1
3,1190,COc1cc(Cl)ccc1-c1nc(-c2cccc(-c3ccnn3C)c2)no1
4,1230,O=S(=O)(Nc1cccc(-c2nc(-c3cccc(Br)c3)co2)c1)c1cccs1
5,702,Cc1cc(C)cc(NC(=O)NCCn2nnc3cc(C(=O)N4CCCC4)ccc32)c1
6,745,O=C(CSc1nnnn1-c1ccccc1)NCCc1ccc2c(c1)OCCO2
7,785,CCC(=O)N1c2ccc(S(=O)(=O)CCC(=O)N3CCN(c4ccc(OC)cc4)CC3)cc2CC1C (configuration not stated)
8,655,Cc1oc(-c2[nH]ncc2C(=O)N2CCCC2)cc1S(=O)(=O)NCCCOC(C)C
9,879,CC1Oc2ccc(-c3csc(NC(=O)c4ccc(F)cc4)n3)cc2NC1=O (configuration not stated)
10,677,COc1cccc(NC(=O)Nc2c(-c3ccc(F)cc3)nc3ccccn23)c1
11,687,O=S(=O)(c1ccc2c(c1)CCC2)N1CC[C@@H]2COCCN(Cc3cccnc3)[C@@H]2C1
12,1020,CCCCS(=O)(=O)c1cc2c(cc1NC(=O)c1ccc(Br)cc1)n(C)c(=O)n2C
13,855,CCOc1ccc(NC(=O)N2CCCC(C)(C(=O)NCc3ccccc3C)C2)cc1 (configuration not stated)
14,774,Cn1nc(CC(=O)Nc2ccccc2Br)c2ccccc2c1=O
15,965,CCOC(=O)c1noc2ncnc(NCc3ccccc3Cl)c12
16,749,O=C(c1cn(-c2cc(Nc3ccccc3)ncn2)cn1)N1CCN(c2ncccn2)CC1
17,663,Cn1cc(C(=O)N2CC(c3nc(CCOCC4CCOCC4)no3)C2)cn1
18,682,O=C1NC2(CCN(C(=O)Nc3ccc4c(c3)OCO4)CC2)Nc2c(Cl)cccc21
19,535,COc1cccc(NC(=O)N2CCC(c3nc4ccncc4n3C(C)C)C2)c1 (configuration not stated)
20,634,COc1ccc(N2CCN(C(=O)C3CCN(c4cnc5nccnc5c4)CC3)CC2)cc1
21,839,O=C(Nc1cccc(F)c1)C1CC(=O)N(c2ccc3c(c2)CCN3C(=O)C2CCC2)C1 (configuration not stated)
22,724,O=C1CCN(S(=O)(=O)c2cccc3nsnc23)CCCCCCN1

row,RP-LC retention time [s],SMILES
1,778,CCCSCCCNC(=O)Cn1cnc2nc3c(cc2c1=O)CC(C)CC3 (configuration not stated)
2,990,CC(C)CN(CC(=O)N(Cc1ccco1)CC1CCCO1)C(=O)c1ccc(F)cc1 (configuration not stated)
3,852,COc1ccc(OCc2nc(CCN(C)C(=O)COc3ccccc3)no2)cc1
4,593,CN1CCN(C(=O)c2cn(-c3cc(N4CCSCC4)ncn3)cn2)CC1
5,930,Cc1ccc2c(c1)N(C(=O)Cn1ccn3nc(-c4ccc(F)cc4)c(CO)c3c1=O)CCO2
6,904,O=C(NCCc1c[nH]c2ccc(Cl)cc12)c1cc2n(n1)CCCN(Cc1ccccc1)C2=O
7,834,Cc1ccc2c(c1)C(c1ccccc1)N(C(=O)c1ccc([N+](=O)[O-])cc1)CC(=O)N2 (configuration not stated)
8,692,CS(=O)(=O)N(C1CCOCC1)C1CN(C(=O)COc2ccccc2)C1
9,778,O=C(NCc1ccccn1)c1ccc(-c2nc3cccnc3n(C3CCCC3)c2=O)cc1
10,698,CN(C)C(=O)c1cc2c(s1)CCC(C(=O)Nc1ccc3c(c1)OCO3)C2 (configuration not stated)
11,1060,C=CCN1C(=O)COc2ccc(-c3csc(NC(=O)C4CCCCC4)n3)cc21
12,730,O=C(CCNc1c(-c2ccc(F)cc2)nc2cnccn12)N1CCCCC1
13,1150,O=C(C1CCN(S(=O)(=O)c2cc(-c3noc(C4CCC4)n3)cs2)CC1)N1CCc2ccccc21
14,879,CCCCS(=O)(=O)N1CC=C(c2cn(C)c3ncccc23)CC1
15,898,COc1cc(NC(=O)CN2C(=O)CCc3cc(Br)ccc32)cc(OC)c1
16,1310,CCCCc1ccc(NC(=O)CSc2cc(N3CCN(c4ccc(OC)cc4)CC3)ncn2)cc1
17,768,CC1=C(c2ccccc2)S(=O)(=O)N=C1N1CCCN(C(=O)NCC(C)C)CC1
18,649,CCCc1cc(N2CCN(C(=O)Cc3ccsc3)CC2)nc2nnc(CC)n12
19,1040,CC1CCN(c2cc(-n3cnc(C(=O)N4CCN(c5ccccc5)CC4)c3)ncn2)CC1
20,685,COCCCNC(=O)CN1C(=O)CCn2nc(-c3cn(C)c4ccccc34)cc21
21,876,CCc1noc(NC(C)=O)c1-c1ccc(OC)c(S(=O)(=O)Nc2cc(Cl)ccc2OC)c1
22,605,Cc1ccc(NC(=O)N2CC(N(C)Cc3cccnc3)C2)cc1C

row,RP-LC retention time [s],SMILES
1,583,CN1CCC(OC2CCN(C(=O)c3ccc(F)cc3Cl)CC2)CC1
2,855,CCOC(=O)N1CCN(Cc2nc(-c3ccc(N4CCCC(C)C4)nc3)no2)CC1 (configuration not stated)
3,896,CN(C)S(=O)(=O)c1ccc2c(c1)N(CC(=O)NCc1ccc(F)cc1)C(=O)C1CCCCN21 (configuration not stated)
4,731,CCOc1ccc(N2CCn3c2nn(Cc2ccc(C(=O)OC)o2)c(=O)c3=O)cc1
5,560,Cn1c(CNC(=O)CCC2CCCN(c3cc(NC4CC4)ncn3)C2)nc2ccccc21 (configuration not stated)
6,800,Cc1ccc(CN2CC(=O)N(c3ccccc3)[C@@H]3CS(=O)(=O)C[C@@H]32)cc1
7,925,Cc1ccc(S(=O)(=O)N2CCC(n3cnc4ccc(C)cc4c3=O)CC2)cc1
8,922,COc1cccc(C(=O)NC2(C(F)(F)F)C(=O)N(CC3CCCO3)C3=C2C(=O)CC(C)(C)C3)c1 (configuration not stated)
9,1190,O=C1COc2cc(Cl)ccc2N1Cc1nc(-c2ccc(F)c(Cl)c2)no1
10,856,COc1ccccc1-c1noc(C2CCCN2C(=O)c2cccc(F)c2)n1 (configuration not stated)
11,752,CN1CCCn2cc(S(=O)(=O)NCCc3ccc(Cl)cc3)cc2C1=O
12,1140,CCN(CC)S(=O)(=O)c1cccc(-c2nnc(-c3ccc(Cl)cc3)o2)c1
13,1180,Cc1cccc(Sc2nccnc2N2CCCC(C(=O)NCc3cccc(Cl)c3)C2)c1 (configuration not stated)
14,600,Cc1nn(C)c(C)c1CNC(=O)c1cccc2[nH]cc(CN3CCCC3)c12
15,634,CCOc1ccc(CC(=O)N2CCN(c3cc(CC)n4cnnc4n3)CC2)cc1
16,799,Cc1ccc(NC(=O)N2CCC(c3nc(C(=O)N(C)C)c(C)o3)CC2)cc1Cl
17,997,CCc1nc(OCC(=O)Nc2ccc(Cl)c(C(F)(F)F)c2)c2ccccc2n1
18,742,Cc1nnc(NC(=O)COc2ccc3ccccc3c2)s1
19,1180,Cn1nc(-c2nnc(-c3ccc(F)cc3)o2)c2c1CCN(S(=O)(=O)c1ccc(C(C)(C)C)cc1)C2

row,SMILES,RP-LC retention time [s]
1,CN1C2CCC1CC(OC(c1ccccc1)c1ccccc1N)C2 (configuration not stated),752
2,CCCCCC[C@H]1C(=O)O[C@H](C)[C@H](NC(=O)c2cccc(NC=O)c2O)C(=O)O[C@@H](C)[C@@H]1OC(=O)CC(C)C,1100
